{
  "source": "patent US20240043404A1",
  "about": "(AbbVie Inc., priority 2009, published 2024)",
  "data": [
    {"test_system": "RS4;11 cells", "assay": "RS4;11 cell viability assay (CellTiter Glo);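 also: acute lymphoblastic leukemia line RS4,11, EC50 derived from percentage of viable cells after treatment relative to untreated controls, cell killing taken as a measure of Bcl-2 inhibition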", "assay_type": "cell-based, human", "settings": "Homo sapiens, RS4-11, 48 h, 50,000 cells per well, 10% human serum, 48 hours; read-out: RS4; 11 EC50 Values", "units": {"EC50": "nM"}, "experimental": "The acute lymphoblastic leukemia (ALL) cell line RS4;11 was used as the primary human cell line to assess the cellular activity of Bcl-2 selective agents in vitro and their efficacy in vivo.\nCell cytotoxicity EC50 values were assessed using CellTiter Glo (Promega) according to the manufacturer's recommendations. The EC50 values were determined as a percentage of viable cells following treatment compared to the untreated control cells.", "values": [
      {"molecule": "CC1(C)CCC(CN2CCN(c3ccc(C(=O)NS(=O)(=O)c4cnc(N[C@H]5CC[C@H](N6CCOCC6)CC5)c(C#N)c4)c(Oc4cnc5[nH]ccc5c4)c3)CC2)=C(c2ccc(Cl)cc2)C1", "note": "[Example 109, Trans-4-(4-{[2-(4-chlorophenyl)-4,4-dimethylcyclohex-1-en-1-yl]methyl}piperazin-1-yl)-N-({5-cyano-6-[(4-morpholin-4-ylcyclohexyl)amino]pyridin-3-yl}sulfonyl)-2-(1H-pyrrolo[2,3-b]pyridin-5-yloxy)benzamide]", "EC50": 183},
      {"molecule": "CC1(C)CCC(CN2CCN(c3ccc(C(=O)NS(=O)(=O)c4ccc5nc[nH]c(=O)c5c4)c(Oc4cnc5[nH]ccc5c4)c3)CC2)=C(c2ccc(Cl)cc2)C1", "note": "[Example 70, 4-(4-{[2-(4-chlorophenyl)-4,4-dimethylcyclohex-1-en-1-yl]methyl}piperazin-1-yl)-N-[(4-oxo-3,4-dihydroquinazolin-6-yl)sulfonyl]-2-(1H-pyrrolo[2,3-b]pyridin-5-yloxy)benzamide]", "EC50": "> 5000"},
      {"molecule": "CO[C@H]1CC[C@H](COc2ncc(S(=O)(=O)NC(=O)c3ccc(N4CCN(CC5=C(c6ccc(Cl)cc6)CC(C)(C)CC5)CC4)cc3Oc3cnc4[nH]ccc4c3)cc2C(F)(F)F)CC1", "note": "[Example 300, 4-(4-{[2-(4-chlorophenyl)-4,4-dimethylcyclohex-1-en-1-yl]methyl}piperazin-1-yl)-N-({6-[(trans-4-methoxycyclohexyl)methoxy]-5-(trifluoromethyl)pyridin-3-yl}sulfonyl)-2-(1H-pyrrolo[2,3-b]pyridin-5-yloxy)benzamide]", "EC50": 763},
      {"molecule": "CC1(C)CCC(CN2CCN(c3ccc(C(=O)NS(=O)(=O)c4ccc(NC[C@@H]5CC[C@@H](O)C5)c([N+](=O)[O-])c4)c(Oc4cnc5[nH]ccc5c4)c3)CC2)=C(c2ccc(Cl)cc2)C1", "note": "[Example 156, 4-(4-{[2-(4-chlorophenyl)-4,4-dimethylcyclohex-1-en-1-yl]methyl}piperazin-1-yl)-N-{[4-({[(1R,3R)-3-hydroxycyclopentyl]methyl}amino)-3-nitrophenyl]sulfonyl}-2-(1H-pyrrolo[2,3-b]pyridin-5-yloxy)benzamide]", "EC50": 8.05},
      {"molecule": "CN1CCN(Nc2ccc(S(=O)(=O)NC(=O)c3ccc(N4CCN(CC5=C(c6ccc(Cl)cc6)CC(C)(C)CC5)CC4)cc3Oc3cnc4[nH]ccc4c3)cc2[N+](=O)[O-])CC1", "note": "[Example 6, 4-(4-{[2-(4-chlorophenyl)-4,4-dimethylcyclohex-1-en-1-yl]methyl}piperazin-1-yl)-N-({4-[(4-methylpiperazin-1-yl)amino]-3-nitrophenyl}sulfonyl)-2-(1H-pyrrolo[2,3-b]pyridin-5-yloxy)benzamide]", "EC50": 34.9},
      {"molecule": "CC1(C)CCC(CN2CCN(c3ccc(C(=O)NS(=O)(=O)c4ccc(NCC5CCOCC5)c(C#N)c4)c(Oc4cnc5[nH]ccc5c4)c3)CC2)=C(c2ccc(Cl)cc2)C1", "note": "[Example 110, 4-(4-{[2-(4-chlorophenyl)-4,4-dimethylcyclohex-1-en-1-yl]methyl}piperazin-1-yl)-N-({3-cyano-4-[(tetrahydro-2H-pyran-4-ylmethyl)amino]phenyl}sulfonyl)-2-(1H-pyrrolo[2,3-b]pyridin-5-yloxy)benzamide]", "EC50": 536},
      {"molecule": "CC1(C)CCC(CN2CCN(c3ccc(C(=O)NS(=O)(=O)c4ccc(NCC5CCCN(CC#N)C5)c([N+](=O)[O-])c4)c(Oc4cnc5[nH]ccc5c4)c3)CC2)=C(c2ccc(Cl)cc2)C1", "note": "(centres unmarked) [Example 229, 4-(4-{[2-(4-chlorophenyl)-4,4-dimethylcyclohex-1-en-1-yl]methyl}piperazin-1-yl)-N-{[4-({[1-(cyanomethyl)piperidin-3-yl]methyl}amino)-3-nitrophenyl]sulfonyl}-2-(1H-pyrrolo[2,3-b]pyridin-5-yloxy)benzamide]", "EC50": "> 1000"},
      {"molecule": "CC1(C)CCC(CN2CCN(c3ccc(C(=O)NS(=O)(=O)c4cnc(NCC5CCOCC5)c(C#N)c4)c(Oc4cnc5[nH]ccc5c4)c3)CC2)=C(c2ccc(Cl)cc2)C1", "note": "[Example 106, 4-(4-{[2-(4-chlorophenyl)-4,4-dimethylcyclohex-1-en-1-yl]methyl}piperazin-1-yl)-N-({5-cyano-6-[(tetrahydro-2H-pyran-4-ylmethyl)amino]pyridin-3-yl}sulfonyl)-2-(1H-pyrrolo[2,3-b]pyridin-5-yloxy)benzamide]", "EC50": 826},
      {"molecule": "CC1(C)CCC(CC2CCN(c3ccc(C(=O)NS(=O)(=O)c4ccc(NCC5CCOCC5)c([N+](=O)[O-])c4)c(Oc4cnc5[nH]ccc5c4)c3)CC2)=C(c2ccc(Cl)cc2)C1", "note": "[Example 315, 4-(4-{[2-(4-chlorophenyl)-4,4-dimethylcyclohex-1-en-1-yl]methyl}piperidin-1-yl)-N-({3-nitro-4-[(tetrahydro-2H-pyran-4-ylmethyl)amino]phenyl}sulfonyl)-2-(1H-pyrrolo[2,3-b]pyridin-5-yloxy)benzamide]", "EC50": 210},
      {"molecule": "CC1(C)CCC(CN2CCN(c3ccc(C(=O)NS(=O)(=O)c4ccc(N5CCC(N6CCOCC6)CC5)c([N+](=O)[O-])c4)c(Oc4cnc5[nH]ccc5c4)c3)CC2)=C(c2ccc(Cl)cc2)C1", "note": "[Example 223, 4-(4-{[2-(4-chlorophenyl)-4,4-dimethylcyclohex-1-en-1-yl]methyl}piperazin-1-yl)-N-({4-[4-(morpholin-4-yl)piperidin-1-yl]-3-nitrophenyl}sulfonyl)-2-(1H-pyrrolo[2,3-b]pyridin-5-yloxy)benzamide]", "EC50": 182},
      {"molecule": "CC1(C)CC(c2ccc(Cl)cc2)=C(CN2CCN(c3ccc(C(=O)NS(=O)(=O)c4ccc(NCC5CCOCC5)c(S(=O)(=O)C(F)(F)F)c4)c(Oc4cnc5[nH]ccc5c4)c3)CC2)CO1", "note": "[Example 43, 4-(4-{[4-(4-chlorophenyl)-6,6-dimethyl-5,6-dihydro-2H-pyran-3-yl]methyl}piperazin-1-yl)-2-(1H-pyrrolo[2,3-b]pyridin-5-yloxy)-N-({4-[(tetrahydro-2H-pyran-4-ylmethyl)amino]-3-[(trifluoromethyl)sulfonyl]phenyl}sulfonyl)benzamide]", "EC50": 272},
      {"molecule": "CC1(C)CCC(CN2CCN(c3ccc(C(=O)NS(=O)(=O)c4ccc(NC5CCC(N6CCC(F)(F)C6)CC5)c([N+](=O)[O-])c4)c(Oc4cnc5[nH]ccc5c4)c3)CC2)=C(c2ccc(Cl)cc2)C1", "note": "(centres unmarked) [Example 346, 4-(4-{[2-(4-chlorophenyl)-4,4-dimethylcyclohex-1-en-1-yl]methyl}piperazin-1-yl)-N-[(4-{[4-(3,3-difluoropyrrolidin-1-yl)cyclohexyl]amino}-3-nitrophenyl)sulfonyl]-2-(1H-pyrrolo[2,3-b]pyridin-5-yloxy)benzamide]", "EC50": 190},
      {"molecule": "CC1(C)CCC(CN2CCN(c3ccc(C(=O)NS(=O)(=O)c4ccc(NC[C@@H]5CCN(C6COC6)C5)c([N+](=O)[O-])c4)c(Oc4cnc5[nH]ccc5c4)c3)CC2)=C(c2ccc(Cl)cc2)C1", "note": "[Example 209, 4-(4-{[2-(4-chlorophenyl)-4,4-dimethylcyclohex-1-en-1-yl]methyl}piperazin-1-yl)-N-{[3-nitro-4-({[(3S)-1-oxetan-3-ylpyrrolidin-3-yl]methyl}amino)phenyl]sulfonyl}-2-(1H-pyrrolo[2,3-b]pyridin-5-yloxy)benzamide]", "EC50": 4.5}
    ]},
    {"test_system": "RS4;11 cells", "assay": "RS4;11 cell viability assay (CellTiter Glo);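 also: acute lymphoblastic leukemia line RS4,11, EC50 derived from percentage of viable cells after treatment relative to untreated controls, cell killing taken as a measure of Bcl-2 inhibition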", "assay_type": "cell-based, human", "settings": "Homo sapiens, RS4-11, Table 5, direct comparison Z=N with corresponding analogs Z=C; read-out: RS4; 11 EC50", "units": {"EC50": "nM"}, "values": [
      {"molecule": "CN1CCN(Nc2ccc(S(=O)(=O)NC(=O)c3ccc(N4CCN(CC5=C(c6ccc(Cl)cc6)CC(C)(C)CC5)CC4)cc3Oc3cnc4[nH]ccc4c3)cc2[N+](=O)[O-])CC1", "note": "[Example 6, 4-(4-{[2-(4-chlorophenyl)-4,4-dimethylcyclohex-1-en-1-yl]methyl}piperazin-1-yl)-N-({4-[(4-methylpiperazin-1-yl)amino]-3-nitrophenyl}sulfonyl)-2-(1H-pyrrolo[2,3-b]pyridin-5-yloxy)benzamide]", "EC50": 35}
    ]}
  ]
}
